# Experimental data taken from patent publication US8592466B2, “Methods for treating conditions caused by higher-than-normal dopaminergic activity in basal ganglia” (Neuropill, Inc., priority 2008, dated 2013).
# Assay: Phase I cocaine interaction study: heart rate and blood pressure
# Details: cocaine 20 mg and 40 mg i.v., most P-values<0.05
smiles,measurement,value
"COC(=O)[C@H]1[C@@H](OC(=O)c2ccccc2)C[C@@H]2CC[C@H]1N2C [cocaine, reference compound]",HR/SBP/DBP after cocaine infusion,significant elevation
